Source: patent US20090105283A1, “3-HYDROQUINAZOLIN-4-ONE DERIVATIVES FOR USE AS STEAROYL CoA DESATURASE INHIBITORS” (priority 2007, published 2009)
Values joined by “and” are separate entries in the source; they are usually repeats but may differ in a detail not shown here. Equal values may be shown once.

Molecular target: T1, stearoyl-CoA desaturase (SCD) (Rattus norvegicus, UniProt P07308)
T1 construct: The microsomes were quickly thawed and added to assay buffer so that a concentration of 0.4 mg/ml was achieved; from tissue
T1 sequence (P07308 1-358): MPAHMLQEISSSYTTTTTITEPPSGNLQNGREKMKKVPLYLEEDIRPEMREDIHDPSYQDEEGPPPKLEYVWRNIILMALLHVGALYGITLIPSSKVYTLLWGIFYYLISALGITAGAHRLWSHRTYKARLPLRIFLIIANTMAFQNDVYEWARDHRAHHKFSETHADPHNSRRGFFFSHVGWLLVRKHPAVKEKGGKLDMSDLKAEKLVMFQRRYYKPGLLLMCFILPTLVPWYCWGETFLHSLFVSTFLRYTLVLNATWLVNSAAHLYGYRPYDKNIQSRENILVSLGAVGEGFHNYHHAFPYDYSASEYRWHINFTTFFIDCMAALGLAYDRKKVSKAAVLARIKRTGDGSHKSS
Experiment: SCD assay with rat liver microsomes ([3H]stearoyl CoA, adapted from Talamo and Bloch)
Format: biochemical
Settings: Table 1; rat liver microsomes 0.2 mg/ml assay final, [3H]stearoyl CoA substrate, 30 min preincubation, 45 min reaction, room temperature
Source text: Male Spraque Dawley Rats were placed on regimented fasting protocol for one week to stimulate SCD enzymatic activity. 48-hour periods were alternated between feeding and fasting to induce and down-regulate SCD activity with SCD activity being induced via carbohydrate rich diet prior to liver perfusion and collection.
The rats were anesthetized with Isoflurane inhalation anesthetic, the liver perfused with cold phosphate buffered saline (PBS), weighed, and chilled in cold homogenization buffer (250 mM sucrose, 10 mM Tris, 1 mM EDTA, pH 7.6.
The livers were finely minced and placed in homogenization tube. 40 mL of homogenization buffer was added to the homogenization tube and the liver homogenized and centrifuged in a pre-chilled […] for 10 min at 4° C.
Following centrifugation, the supernatant was collected and the pellet removed and discarded. The supernatant was centrifuge at 10,000 G for 35 minutes. Following centrifugation, the supernatant was collect and the pellet discarded. The supernatant was then centrifuged in a pre-chilled 45-Ti rotor at 130,000 G (41,000 RPM) for 90 minutes at 4° C.
The supernatant was then aspirated off and the collected microsomal pellet washed in 25 mL of Glycerol PBS (1×PBS 7.4, 20% Glycerol) and resuspended in 4-5 volumes of Glycerol PBS.
The protein concentration of the microsomal preparation was determined by BCA assay (Pierce) and the microsomes were aliquoted and stored at −80° C.
Biobeads were ground to a smaller size in a mortar and pestle and resuspended in 3.6% TCA. The beads were then filtered through […] mesh.
SCD was determined in the desaturase assay buffer. This assay buffer contained 0.1 M Tris buffer, pH 7.2, 2 mM NADH, 4.8 mM ATP, 0.5 mM CoA, 4.8 mM MgCl2, and 0.1% BSA.
1 μl of each compound of Formula I was added to an assay plate by a low volume (0.5-10 μL) multichannel pipette. A DMSO control was also prepared. The microsomes were quickly thawed and added to assay buffer so that a concentration of 0.4 mg/ml was achieved (0.2 mg/ml assay final). 50 μl of the microsome suspension in assay buffer was then added into each well in the compound assay plate, the plate was covered, and the microsomes preincubated with the compounds for 30 minutes on the orbital shaker, 50-75 rpm, at room temperature.
The reaction mixtures were then incubated for 45 minutes on the orbital shaker at 50-75 rpm at room temperature.
The reaction was terminated by the addition of 10 μl of 21% trichloroacetic acid (TCA) to the reaction mixture followed incubation on the orbital shaker for 30 minutes at 50-75 rpm at room temperature followed by centrifugation for 5 minutes at 3700 rpm.
50 μl of a 6% Bio-Bead suspension in H2O was added to the reaction mixture and the assay plate was sealed. The Bio-Bead mixture was incubated on the orbital shaker for 1 hour, 100-150 rpm at room temperature, and then the mixture was centrifuged at 2000 g for 5 minutes to pellet the Bio-Beads.
25 μl of the supernatant was harvested from each well and transferred to a detection plate. 100 μl of OptiPhase SuperMix scinitillation cocktail (containing sufficient NaOH to neutralize the TCA) was added and the solutions mixed by vigorous shaking (300-400 rpm) for 5 minutes at room temperature.

CN(C)CC(=O)OCC(=O)Nc1ccc2ncn(Cc3ccc(Cl)c(Cl)c3)c(=O)c2c1 [LXXXVI, (N-{3-[(3,4-dichlorophenyl)methyl]-4-oxo-3-hydroquinazolin-6-yl}carbamoyl)methyl 2-(dimethylamino)acetate] and CN(C)CC(=O)OCC(=O)Nc1ccc2c(=O)n(Cc3ccc(Cl)c(Cl)c3)cnc2c1 [XC, (N-{3-[(3,4-dichlorophenyl)methyl]-4-oxo-3-hydroquinazolin-7-yl}carbamoyl)methyl 2-(dimethylamino)acetate] are within 1.5-fold of each other in IC50: 360 nM for the first, 310 nM for the second.

O=C(NCc1ccccc1)Nc1ccc2ncn(Cc3ccc(Cl)c(Cl)c3)c(=O)c2c1 [V, N-{3-[(3,4-dichlorophenyl)methyl]-4-oxo(3-hydroquinazolin-6-yl)}[benzylamino]carboxamide] and O=C(CCC(=O)c1ccccc1)Nc1ccc2ncn(Cc3ccc(Cl)c(Cl)c3)c(=O)c2c1 [XLII, N-{3-[(3,4-dichlorophenyl)methyl]-4-oxo(3-hydroquinazolin-6-yl)}-4-oxo-4-phenylbutanamide] are within 1.5-fold of each other in IC50: 3180 nM for the first, 2170 nM for the second.

Going from Cc1nc2ccc(NC(=O)OCc3ccccc3)cc2c(=O)n1Cc1ccc(Cl)c(Cl)c1 [VI, N-{3-[(3,4-dichlorophenyl)methyl]-2-methyl-4-oxo(3-hydroquinazolin-6-yl)}(phenylmethoxy)carboxamide] to O=C(Nc1ccc2ncn(Cc3ccc(Cl)cc3)c(=O)c2c1)OCc1ccccc1 [VIII, N-{3-[(4-chlorophenyl)methyl]-4-oxo(3-hydroquinazolin-6-yl)}(phenylmethoxy)carboxamide], the IC50 falls from 20000 nM to 190 nM (110-fold).

Going from CC(C)COC(=O)Nc1ccc2ncn(Cc3ccc(Cl)c(Cl)c3)c(=O)c2c1 [VII, N-{3-[(3,4-dichlorophenyl)methyl]-4-oxo(3-hydroquinazolin-6-yl)}(2-methylpropoxy)carboxamide] to COC(=O)Nc1ccc2ncn(Cc3ccc(Cl)c(Cl)c3)c(=O)c2c1 [XIII, N-{3-[(3,4-dichlorophenyl)methyl]-4-oxo(3-hydroquinazolin-6-yl)}methoxycarboxamide], the IC50 falls from 7900 nM to 4700 nM (1.7-fold). The second is the more potent here.

Compared with C=CCOC(=O)Nc1ccc2ncn(Cc3ccc(Cl)c(Cl)c3)c(=O)c2c1 [X, N-{3-[(3,4-dichlorophenyl)methyl]-4-oxo(3-hydroquinazolin-6-yl)}prop-2-enyloxycarboxamide], C=CCOC(=O)Nc1ccc2ncn(Cc3ccc(Cl)cc3)c(=O)c2c1 [XIV, N-{3-[(4-chlorophenyl)methyl]-4-oxo(3-hydroquinazolin-6-yl)}prop-2-enyloxycarboxamide] is 17-fold higher in IC50: 1500 nM for the first, 25700 nM for the second.

Compared with CCOC(=O)COC(=O)Nc1ccc2c(=O)n(Cc3ccc(Cl)c(Cl)c3)cnc2c1 [XCI, ethyl 2-(N-{3-[(3,4-dichlorophenyl)methyl]-4-oxo-3-hydroquinazolin-7-yl}carbamoyloxy)acetate], COCCOCCOC(=O)Nc1ccc2ncn(Cc3ccc(Cl)c(Cl)c3)c(=O)c2c1 [XCII, N-{3-[(3,4-dichlorophenyl)methyl]-4-oxo(3-hydroquinazolin-6-yl)}[2-(2-methoxyethoxy)ethoxy]carboxamide] is 3.1-fold higher in IC50: 3770 nM for the first, 11700 nM for the second.

First: COCCNC(=O)Nc1ccc2ncn(Cc3ccc(Cl)c(Cl)c3)c(=O)c2c1 [XCIII, N-{3-[(3,4-dichlorophenyl)methyl]-4-oxo(3-hydroquinazolin-6-yl)}[(2-methoxyethyl)amino]carboxamide]
Second: CC(=O)NCC(=O)Nc1ccc2ncn(Cc3ccc(Cl)c(Cl)c3)c(=O)c2c1 [XIX, 2-(acetylamino)-N-{3-[(3,4-dichlorophenyl)methyl]-4-oxo(3-hydroquinazolin-6-yl)}acetamide]
The IC50 of the first is 1.9-fold lower: 6200 nM for the first, 11700 nM for the second.

First: CC(=O)OCC(=O)Nc1ccc2ncn(Cc3cccc(C(F)(F)F)c3)c(=O)c2c1 [XCIV, [N-(4-oxo-3-{[3-(trifluoromethyl)phenyl]methyl}-3-hydroquinazolin-6-yl)carbamoyl]methyl acetate]
Second: CC(=O)OCC(=O)Nc1ccc2ncn(Cc3ccc(C(F)(F)F)cc3)c(=O)c2c1 [XCVI, [N-(4-oxo-3-{[4-(trifluoromethyl)phenyl]methyl}-3-hydroquinazolin-6-yl)carbamoyl]methyl acetate]
The IC50 of the first is 1.6-fold lower: 1700 nM for the first, 2740 nM for the second. The first is the more potent here.

O=C(CO)Nc1ccc2ncn(Cc3ccc(Cl)c(F)c3)c(=O)c2c1 [XCIX, N-{3-[(4-chloro-3-fluorophenyl)methyl]-4-oxo(3-hydroquinazolin-6-yl)}-2-hydroxyacetamide] and CC(=O)OCC(=O)Nc1ccc2ncn(Cc3ccc(Cl)c(F)c3)c(=O)c2c1 [XCVIII, (N-{3-[(4-chloro-3-fluorophenyl)methyl]-4-oxo-3-hydroquinazolin-6-yl}carbamoyl)methyl acetate] are within 1.5-fold of each other in IC50: 1160 nM for the first, 1320 nM for the second.

Going from O=C(CO)Nc1ccc2ncn(Cc3cccc(C(F)(F)F)c3)c(=O)c2c1 [XCV, 2-hydroxy-N-(4-oxo-3-{[3-(trifluoromethyl)phenyl]methyl}(3-hydroquinazolin-6-yl))acetamide] to O=C(CO)Nc1ccc2ncn(Cc3ccc(C(F)(F)F)cc3)c(=O)c2c1 [XCVII, 2-hydroxy-N-(4-oxo-3-{[4-(trifluoromethyl)phenyl]methyl}(3-hydroquinazolin-6-yl))acetamide], the IC50 rises from 1380 nM to 3160 nM (2.3-fold). The first is the more potent here.

First: Cc1ccc(OC(=O)Nc2ccc3ncn(Cc4ccc(Cl)c(Cl)c4)c(=O)c3c2)cc1 [XI, N-{3-[(3,4-dichlorophenyl)methyl]-4-oxo(3-hydroquinazolin-6-yl)}(4-methylphenoxy)carboxamide]
Second: O=C(Nc1ccc2ncn(Cc3ccc(Cl)c(Cl)c3)c(=O)c2c1)Oc1ccc(F)cc1 [XII, N-{3-[(3,4-dichlorophenyl)methyl]-4-oxo(3-hydroquinazolin-6-yl)}(4-fluorophenoxy)carboxamide]
The IC50 of the first is 4.8-fold lower: 2700 nM for the first, 13000 nM for the second.

O=C(COc1ccccc1)Nc1ccc2ncn(Cc3ccc(F)c(Cl)c3)c(=O)c2c1 [XL, N-{3-[(3-chloro-4-fluorophenyl)methyl]-4-oxo(3-hydroquinazolin-6-yl)}-2-phenoxyacetamide] and O=C(COc1cccc(F)c1)Nc1ccc2ncn(Cc3ccc(Cl)cc3)c(=O)c2c1 [XLIII, N-{3-[(4-chlorophenyl)methyl]-4-oxo(3-hydroquinazolin-6-yl)}-2-(3-fluorophenoxy)acetamide] are within 1.5-fold of each other in IC50: 9500 nM for the first, 6400 nM for the second.

First: O=C(COc1ccccc1)Nc1ccc2ncn(Cc3ccc4ccsc4c3)c(=O)c2c1 [XLI, N-[3-(benzo[b]thiophen-6-ylmethyl)-4-oxo(3-hydroquinazolin-6-yl)]-2-phenoxyacetamide]
Second: O=C(Nc1ccc2ncn(Cc3ccc4sccc4c3)c(=O)c2c1)OCc1ccccc1 [XLV, N-[3-(benzo[b]thiophen-5-ylmethyl)-4-oxo(3-hydroquinazolin-6-yl)](phenylmethoxy)carboxamide]
The IC50 of the first is 9.3-fold higher: 8000 nM for the first, 860 nM for the second. The second is the more potent here.

Compared with O=C(COc1ccccc1)Nc1ccc2c(=O)n(Cc3ccc(Cl)cc3)cnc2c1 [XLIV, N-{3-[(4-chlorophenyl)methyl]-4-oxo(3-hydroquinazolin-7-yl)}-2-phenoxyacetamide], O=C(COc1cccnc1)Nc1ccc2c(=O)n(Cc3ccc(Cl)cc3)cnc2c1 [XLIX, N-{3-[(4-chlorophenyl)methyl]-4-oxo(3-hydroquinazolin-7-yl)}-2-(3-pyridyloxy)acetamide] is 1.6-fold higher in IC50: 1600 nM for the first, 2500 nM for the second.

O=C(CO)Nc1ccc2c(=O)n(Cc3ccc(F)c(Cl)c3)cnc2c1 [LXXXVII, N-{3-[(3-chloro-4-fluorophenyl)methyl]-4-oxo(3-hydroquinazolin-7-yl)}-2-hydroxyacetamide] was tested, and the IC50 was 2320 nM and 2230 nM.
